Test results from PMC8500670, “A selective WDR5 degrader inhibits acute myeloid leukemia in patient-derived mouse models” (Science translational medicine, 2021).

Legend:
Assay in all cases: biochemical
Parameters in all cases: protein methyltransferase inhibition panel, single concentration, duplicate
PRMT8 = PRMT8 (Homo sapiens, UniProt Q9NR22)
Experimental: (§1) We next assessed selectivity of MS67 against 22 protein methyltransferases (table S2) and a broad panel of common drug targets including 45 kinases (table S3) and 44 G protein–coupled receptors (GPCR), ion channels, and transporters (table S4). […] We subsequently determined that MS67 had moderate binding affinity (Ki = 1.0 ± 0.8 μM) to Sigma 2 receptor (fig. S10).

G9a = target: T1, G9a (Homo sapiens, UniProt Q96KQ7)
T1 construct: gene EHMT2
T1 sequence (Q96KQ7 1-1210): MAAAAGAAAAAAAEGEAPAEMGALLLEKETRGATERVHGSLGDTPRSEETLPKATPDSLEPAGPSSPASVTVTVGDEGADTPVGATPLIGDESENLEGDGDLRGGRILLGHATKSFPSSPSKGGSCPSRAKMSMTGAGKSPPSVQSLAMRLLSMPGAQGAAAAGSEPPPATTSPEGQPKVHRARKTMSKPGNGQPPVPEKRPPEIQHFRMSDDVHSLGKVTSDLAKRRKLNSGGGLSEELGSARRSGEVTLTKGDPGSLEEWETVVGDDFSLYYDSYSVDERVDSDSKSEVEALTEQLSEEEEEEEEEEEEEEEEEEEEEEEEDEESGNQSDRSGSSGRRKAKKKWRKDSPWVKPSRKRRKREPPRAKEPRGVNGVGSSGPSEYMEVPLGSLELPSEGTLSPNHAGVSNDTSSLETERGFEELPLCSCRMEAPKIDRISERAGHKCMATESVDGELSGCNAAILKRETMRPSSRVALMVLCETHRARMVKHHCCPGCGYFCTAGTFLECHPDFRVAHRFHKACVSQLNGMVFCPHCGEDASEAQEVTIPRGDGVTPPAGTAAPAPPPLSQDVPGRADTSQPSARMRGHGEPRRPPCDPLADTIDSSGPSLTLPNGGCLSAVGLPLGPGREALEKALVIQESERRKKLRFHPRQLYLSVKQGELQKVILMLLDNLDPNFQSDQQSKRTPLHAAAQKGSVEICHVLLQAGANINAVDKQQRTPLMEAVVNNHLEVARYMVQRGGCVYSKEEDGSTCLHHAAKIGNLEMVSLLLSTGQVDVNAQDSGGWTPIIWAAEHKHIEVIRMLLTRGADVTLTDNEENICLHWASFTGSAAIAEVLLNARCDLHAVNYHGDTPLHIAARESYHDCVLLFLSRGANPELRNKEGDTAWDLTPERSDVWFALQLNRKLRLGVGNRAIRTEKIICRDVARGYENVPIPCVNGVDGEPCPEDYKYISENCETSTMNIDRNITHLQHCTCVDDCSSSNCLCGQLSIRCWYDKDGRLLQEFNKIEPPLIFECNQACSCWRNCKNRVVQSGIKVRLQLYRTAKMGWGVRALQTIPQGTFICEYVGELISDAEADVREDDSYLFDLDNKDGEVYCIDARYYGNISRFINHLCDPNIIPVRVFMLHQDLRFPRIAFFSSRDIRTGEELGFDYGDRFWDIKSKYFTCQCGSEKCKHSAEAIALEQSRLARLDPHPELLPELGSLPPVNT
Experimental: as §1

PRMT6 = PRMT6 (Homo sapiens, UniProt Q96LA8)
Experimental: as §1

GLP = target: T2, GLP (Homo sapiens, UniProt Q9H9B1)
T2 construct: gene EHMT1
T2 sequence (Q9H9B1 1-1298): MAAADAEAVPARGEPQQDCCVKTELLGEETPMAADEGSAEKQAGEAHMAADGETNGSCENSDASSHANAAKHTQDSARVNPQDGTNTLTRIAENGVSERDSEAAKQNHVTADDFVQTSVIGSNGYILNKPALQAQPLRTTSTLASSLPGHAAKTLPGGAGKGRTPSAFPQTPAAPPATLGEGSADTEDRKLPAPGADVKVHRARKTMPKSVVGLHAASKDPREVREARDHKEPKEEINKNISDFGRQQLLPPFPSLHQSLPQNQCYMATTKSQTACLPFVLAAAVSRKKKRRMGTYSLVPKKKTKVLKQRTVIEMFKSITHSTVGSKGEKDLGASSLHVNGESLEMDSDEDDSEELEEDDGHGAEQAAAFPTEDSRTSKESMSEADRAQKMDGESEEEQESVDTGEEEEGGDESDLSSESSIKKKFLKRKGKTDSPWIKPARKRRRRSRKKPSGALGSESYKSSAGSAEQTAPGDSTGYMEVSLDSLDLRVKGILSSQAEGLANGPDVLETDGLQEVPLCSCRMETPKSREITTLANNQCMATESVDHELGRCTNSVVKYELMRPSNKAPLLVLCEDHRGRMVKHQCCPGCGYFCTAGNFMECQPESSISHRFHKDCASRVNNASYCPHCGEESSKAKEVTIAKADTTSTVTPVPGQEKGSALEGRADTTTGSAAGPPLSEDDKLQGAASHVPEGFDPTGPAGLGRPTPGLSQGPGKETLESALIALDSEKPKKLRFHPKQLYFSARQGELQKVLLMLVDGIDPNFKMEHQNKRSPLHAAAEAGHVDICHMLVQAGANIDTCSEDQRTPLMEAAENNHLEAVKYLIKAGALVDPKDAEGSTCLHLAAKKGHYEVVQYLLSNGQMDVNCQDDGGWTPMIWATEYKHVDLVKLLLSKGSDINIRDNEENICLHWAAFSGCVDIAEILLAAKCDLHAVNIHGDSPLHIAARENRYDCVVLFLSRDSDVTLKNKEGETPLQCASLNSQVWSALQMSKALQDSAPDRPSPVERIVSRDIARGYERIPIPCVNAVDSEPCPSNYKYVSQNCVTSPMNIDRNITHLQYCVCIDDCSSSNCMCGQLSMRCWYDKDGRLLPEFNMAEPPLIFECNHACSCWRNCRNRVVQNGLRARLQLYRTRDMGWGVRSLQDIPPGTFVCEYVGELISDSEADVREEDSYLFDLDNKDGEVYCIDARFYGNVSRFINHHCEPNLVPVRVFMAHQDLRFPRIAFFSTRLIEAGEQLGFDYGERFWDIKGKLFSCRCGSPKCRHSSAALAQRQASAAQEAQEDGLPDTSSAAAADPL
Experimental: as §1

SETD2 = SETD2 (Homo sapiens, UniProt Q9BYW2)
Experimental: as §1

SUV39H2 = SUV39H2 (Homo sapiens, UniProt Q9H5I1)
Experimental: as §1

Measured: inhibition at 10 µM

SETD2, sequence (Q9BYW2 whole entry): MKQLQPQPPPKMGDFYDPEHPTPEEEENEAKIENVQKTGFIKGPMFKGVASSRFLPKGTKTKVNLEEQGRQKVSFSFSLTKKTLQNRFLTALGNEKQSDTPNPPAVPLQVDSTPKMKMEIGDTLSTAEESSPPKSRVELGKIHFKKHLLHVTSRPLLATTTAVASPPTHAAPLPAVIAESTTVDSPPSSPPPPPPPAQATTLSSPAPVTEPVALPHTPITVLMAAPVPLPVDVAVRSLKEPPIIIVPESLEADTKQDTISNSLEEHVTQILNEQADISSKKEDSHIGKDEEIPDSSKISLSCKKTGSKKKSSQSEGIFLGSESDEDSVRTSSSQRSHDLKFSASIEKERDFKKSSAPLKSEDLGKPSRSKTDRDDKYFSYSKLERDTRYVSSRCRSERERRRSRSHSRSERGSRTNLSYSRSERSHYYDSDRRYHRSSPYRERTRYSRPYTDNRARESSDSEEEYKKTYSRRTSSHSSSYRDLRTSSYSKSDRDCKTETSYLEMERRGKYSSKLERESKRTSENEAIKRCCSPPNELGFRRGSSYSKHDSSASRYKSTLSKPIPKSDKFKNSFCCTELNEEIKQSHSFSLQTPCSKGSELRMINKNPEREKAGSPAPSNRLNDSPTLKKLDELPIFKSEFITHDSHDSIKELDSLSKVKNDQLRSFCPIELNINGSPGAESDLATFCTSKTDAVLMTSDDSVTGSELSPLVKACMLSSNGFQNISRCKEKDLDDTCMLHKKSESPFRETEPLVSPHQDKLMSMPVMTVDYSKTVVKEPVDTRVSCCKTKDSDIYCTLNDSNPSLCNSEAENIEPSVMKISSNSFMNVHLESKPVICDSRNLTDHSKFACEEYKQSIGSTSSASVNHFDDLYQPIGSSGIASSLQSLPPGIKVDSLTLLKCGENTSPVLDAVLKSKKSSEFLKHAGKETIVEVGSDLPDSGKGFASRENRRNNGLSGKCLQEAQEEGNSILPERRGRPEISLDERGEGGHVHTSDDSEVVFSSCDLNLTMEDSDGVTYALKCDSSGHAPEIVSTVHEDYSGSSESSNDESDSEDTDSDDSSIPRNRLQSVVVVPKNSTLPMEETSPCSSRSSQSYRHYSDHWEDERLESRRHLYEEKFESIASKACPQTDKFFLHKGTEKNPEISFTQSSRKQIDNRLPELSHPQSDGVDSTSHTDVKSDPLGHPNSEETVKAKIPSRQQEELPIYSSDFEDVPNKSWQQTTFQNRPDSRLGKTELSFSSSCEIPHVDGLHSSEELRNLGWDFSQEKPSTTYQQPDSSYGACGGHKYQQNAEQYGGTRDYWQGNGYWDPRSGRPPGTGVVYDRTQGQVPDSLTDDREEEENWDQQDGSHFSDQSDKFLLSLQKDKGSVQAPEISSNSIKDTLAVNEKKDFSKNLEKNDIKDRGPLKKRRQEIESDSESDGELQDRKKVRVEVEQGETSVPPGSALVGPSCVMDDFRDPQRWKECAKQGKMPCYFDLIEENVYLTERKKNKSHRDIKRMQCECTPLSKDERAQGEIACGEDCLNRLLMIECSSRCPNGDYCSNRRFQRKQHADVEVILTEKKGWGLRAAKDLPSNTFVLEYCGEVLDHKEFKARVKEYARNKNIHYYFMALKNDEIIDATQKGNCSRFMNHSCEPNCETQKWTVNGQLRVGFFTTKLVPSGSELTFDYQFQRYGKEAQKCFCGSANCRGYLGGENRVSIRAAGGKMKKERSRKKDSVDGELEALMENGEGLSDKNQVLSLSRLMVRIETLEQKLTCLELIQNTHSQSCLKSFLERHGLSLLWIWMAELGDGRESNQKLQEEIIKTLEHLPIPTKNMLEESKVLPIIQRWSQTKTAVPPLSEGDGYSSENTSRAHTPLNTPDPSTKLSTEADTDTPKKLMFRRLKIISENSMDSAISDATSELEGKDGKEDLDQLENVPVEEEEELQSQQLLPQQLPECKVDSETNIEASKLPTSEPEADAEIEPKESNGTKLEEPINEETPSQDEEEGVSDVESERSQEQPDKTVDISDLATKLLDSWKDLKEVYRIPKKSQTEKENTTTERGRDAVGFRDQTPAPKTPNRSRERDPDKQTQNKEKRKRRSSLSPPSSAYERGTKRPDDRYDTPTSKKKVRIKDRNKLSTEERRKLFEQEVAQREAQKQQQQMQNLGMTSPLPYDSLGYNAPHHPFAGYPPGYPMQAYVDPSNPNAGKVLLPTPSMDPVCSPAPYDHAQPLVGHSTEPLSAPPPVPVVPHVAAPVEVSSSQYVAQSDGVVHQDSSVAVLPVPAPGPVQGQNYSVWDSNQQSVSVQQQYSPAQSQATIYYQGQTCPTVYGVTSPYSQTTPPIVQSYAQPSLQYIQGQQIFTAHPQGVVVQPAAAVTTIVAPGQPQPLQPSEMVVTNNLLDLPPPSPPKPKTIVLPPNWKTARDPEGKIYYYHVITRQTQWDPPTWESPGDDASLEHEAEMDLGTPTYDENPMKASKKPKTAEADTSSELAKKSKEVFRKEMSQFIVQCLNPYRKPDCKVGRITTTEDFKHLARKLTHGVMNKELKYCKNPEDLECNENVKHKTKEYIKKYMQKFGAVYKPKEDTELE
SUV39H2, sequence (Q9H5I1 whole entry): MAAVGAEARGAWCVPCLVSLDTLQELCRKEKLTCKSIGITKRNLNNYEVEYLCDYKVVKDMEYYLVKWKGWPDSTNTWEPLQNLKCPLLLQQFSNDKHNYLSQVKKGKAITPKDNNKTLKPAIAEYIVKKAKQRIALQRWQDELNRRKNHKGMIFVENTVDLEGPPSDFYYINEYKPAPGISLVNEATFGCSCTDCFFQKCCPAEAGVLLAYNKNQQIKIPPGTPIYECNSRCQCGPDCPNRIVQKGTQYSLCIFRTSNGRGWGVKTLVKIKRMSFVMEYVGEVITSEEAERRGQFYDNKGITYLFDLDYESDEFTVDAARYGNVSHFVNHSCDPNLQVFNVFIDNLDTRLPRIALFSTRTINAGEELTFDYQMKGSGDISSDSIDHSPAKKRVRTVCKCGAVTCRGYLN
PRMT8, sequence (Q9NR22 whole entry): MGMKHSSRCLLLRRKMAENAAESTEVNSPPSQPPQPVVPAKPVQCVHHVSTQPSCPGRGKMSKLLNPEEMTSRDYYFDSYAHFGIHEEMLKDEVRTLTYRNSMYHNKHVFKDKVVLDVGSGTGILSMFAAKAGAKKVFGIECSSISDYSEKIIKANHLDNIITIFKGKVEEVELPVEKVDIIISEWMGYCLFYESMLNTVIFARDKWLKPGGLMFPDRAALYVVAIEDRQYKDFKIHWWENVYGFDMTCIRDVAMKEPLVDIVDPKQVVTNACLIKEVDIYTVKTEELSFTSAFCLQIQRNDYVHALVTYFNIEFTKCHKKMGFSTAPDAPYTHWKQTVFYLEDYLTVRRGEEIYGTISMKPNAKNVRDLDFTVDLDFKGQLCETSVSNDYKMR
PRMT6, sequence (Q96LA8 whole entry): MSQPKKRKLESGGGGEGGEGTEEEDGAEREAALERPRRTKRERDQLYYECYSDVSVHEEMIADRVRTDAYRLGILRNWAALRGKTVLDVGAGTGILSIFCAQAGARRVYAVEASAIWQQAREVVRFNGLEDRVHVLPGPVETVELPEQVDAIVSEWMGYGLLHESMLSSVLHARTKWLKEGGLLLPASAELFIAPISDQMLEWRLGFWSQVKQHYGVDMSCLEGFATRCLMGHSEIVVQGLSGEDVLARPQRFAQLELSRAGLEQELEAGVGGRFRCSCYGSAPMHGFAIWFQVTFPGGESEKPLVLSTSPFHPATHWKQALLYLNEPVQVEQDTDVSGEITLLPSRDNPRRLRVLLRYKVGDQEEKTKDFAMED

Cc1ncsc1-c1ccc([C@H](C)NC(=O)[C@@H]2C[C@@H](O)CN2C(=O)[C@@H](NC(=O)CNC(=O)c2ccc(F)c(-c3ccc(N4C[C@@H](C)N(C)[C@@H](C)C4)c(NC(=O)c4c[nH]c(=O)cc4C(F)(F)F)c3)c2)C(C)(C)C)cc1 [MS67]
< 10%: all assays above
